Broadly, the IC50 is the midpoint of a concentration-inhibition curve.

Experimental findings from patent US12084420B2, “Indoline compounds for inhibiting KIF18A” (Volastra Therapeutics, Inc., priority 2021, dated 2024) are described below.

Sequence of hKIF18A (1-374) (Q8NI77 whole entry, looked up): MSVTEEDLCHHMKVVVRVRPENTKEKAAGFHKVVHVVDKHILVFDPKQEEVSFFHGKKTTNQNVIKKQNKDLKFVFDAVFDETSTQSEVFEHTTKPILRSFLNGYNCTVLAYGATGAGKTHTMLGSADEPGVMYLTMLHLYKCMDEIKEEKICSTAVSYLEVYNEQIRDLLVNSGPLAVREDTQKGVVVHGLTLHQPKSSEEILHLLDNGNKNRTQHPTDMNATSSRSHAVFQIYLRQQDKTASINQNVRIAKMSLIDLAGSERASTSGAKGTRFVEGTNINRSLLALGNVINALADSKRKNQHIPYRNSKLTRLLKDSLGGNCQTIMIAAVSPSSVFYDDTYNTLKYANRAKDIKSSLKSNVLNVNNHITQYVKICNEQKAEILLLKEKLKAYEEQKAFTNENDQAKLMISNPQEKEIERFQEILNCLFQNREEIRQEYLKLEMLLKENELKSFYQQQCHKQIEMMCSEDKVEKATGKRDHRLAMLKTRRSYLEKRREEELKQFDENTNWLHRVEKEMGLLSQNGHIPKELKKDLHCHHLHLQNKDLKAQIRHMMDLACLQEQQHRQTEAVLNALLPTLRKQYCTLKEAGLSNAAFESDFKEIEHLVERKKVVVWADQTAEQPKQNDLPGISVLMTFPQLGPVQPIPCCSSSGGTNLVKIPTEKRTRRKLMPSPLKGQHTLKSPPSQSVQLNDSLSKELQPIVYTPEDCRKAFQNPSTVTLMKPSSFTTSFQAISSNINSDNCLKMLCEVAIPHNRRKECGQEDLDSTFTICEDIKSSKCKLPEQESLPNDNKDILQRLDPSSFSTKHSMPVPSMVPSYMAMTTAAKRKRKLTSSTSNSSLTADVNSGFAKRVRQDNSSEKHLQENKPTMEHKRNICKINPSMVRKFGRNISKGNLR
Sequence of hKIF18A (1-374) (Q2XVP4 whole entry partner, looked up): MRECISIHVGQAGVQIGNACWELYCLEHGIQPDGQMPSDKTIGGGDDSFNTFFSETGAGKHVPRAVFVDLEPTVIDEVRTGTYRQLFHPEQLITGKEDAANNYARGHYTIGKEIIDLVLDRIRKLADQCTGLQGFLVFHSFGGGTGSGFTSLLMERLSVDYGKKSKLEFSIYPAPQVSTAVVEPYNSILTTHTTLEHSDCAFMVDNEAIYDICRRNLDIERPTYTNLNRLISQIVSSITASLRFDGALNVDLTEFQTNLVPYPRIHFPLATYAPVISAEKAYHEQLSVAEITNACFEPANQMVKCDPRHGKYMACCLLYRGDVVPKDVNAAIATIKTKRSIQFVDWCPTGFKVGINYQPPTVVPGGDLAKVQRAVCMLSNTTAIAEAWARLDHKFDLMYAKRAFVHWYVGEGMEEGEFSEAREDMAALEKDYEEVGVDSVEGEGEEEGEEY
Sequence of hKIF18A (1-374) (P02554 whole entry partner, looked up): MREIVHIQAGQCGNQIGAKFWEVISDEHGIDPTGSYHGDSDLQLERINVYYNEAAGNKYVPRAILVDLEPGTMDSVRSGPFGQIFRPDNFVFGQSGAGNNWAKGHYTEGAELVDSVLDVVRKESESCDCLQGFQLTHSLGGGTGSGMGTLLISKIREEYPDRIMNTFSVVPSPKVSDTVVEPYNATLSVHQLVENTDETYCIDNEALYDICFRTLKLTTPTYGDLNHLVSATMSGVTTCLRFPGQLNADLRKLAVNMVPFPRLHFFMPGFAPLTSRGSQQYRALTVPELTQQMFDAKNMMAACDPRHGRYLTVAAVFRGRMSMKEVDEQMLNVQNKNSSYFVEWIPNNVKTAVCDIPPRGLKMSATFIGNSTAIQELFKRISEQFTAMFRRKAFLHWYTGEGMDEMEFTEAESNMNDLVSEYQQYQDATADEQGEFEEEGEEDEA

The test concerns the target hKIF18A (1-374) (Homo sapiens (Human), UniProt Q8NI77). In words: Inhibition of KIF18A microtubule-dependent ATPase activity (ADP-Glo). The following applies: KIF18A microtubule-dependent ATPase activity, biochemical assay.
`CS(=O)(=O)Nc1ccc2c(c1)C1(CCC3(CC3)CC1)CN2C(=O)c1csc(S(=O)(=O)C2CCCC2)c1` [Compound 330, N-(1″-(5-(cyclopentylsulfonyl)thiophene-3-carbonyl)dispiro[cyclopropane-1,1′-cyclohexane-4′,3″-indolin]-5″- yl)methanesulfonamide] came in with an IC50 of 12 nM.
In the case of `CC(O)(c1cccc(C(=O)N2CC3(CCC4(CC4)CC3)c3cc(NS(C)(=O)=O)ccc32)c1)C1CCCC1` (stereo not drawn) [Compound 331, N-(1″-(3-(1-cyclopentyl-1-hydroxyethyl)benzoyl)dispiro[cyclopropane-1,1′-cyclohexane-4′,3″-indolin]-5″-yl)methanesulfonamide] it was 35 nM.
Then `CC(O)c1ccc2c(c1)C1(CCC3(CC3)CC1)CN2C(=O)c1cccc(S(=O)(=O)NC(C)(C)C)c1` (stereo not drawn) [Compound 332, N-(tert-butyl)-3-(5″-(1-hydroxyethyl)dispiro[cyclopropane-1,1′-cyclohexane-4′,3″-indoline]-1″-carbonyl)benzenesulfonamide], with 150 nM; and `CS(=O)(=O)Nc1ccc2c(c1)C1(CCC3(CC3)CC1)CN2C(=O)c1cccc(S(=O)(=O)CC2CCC2)c1` [Compound 335, N-(1″-(3-((cyclobutylmethyl)sulfonyl)benzoyl)dispiro[cyclopropane-1,1′-cyclohexane-4′,3″-indolin]-5″-yl)methanesulfonamide], with 9.3 nM; and `CS(=O)(=O)Nc1ccc2c(c1)[C@]1(CC[C@@H](C(F)F)CC1)CN2C(=O)c1cccc(S(=O)(=O)NC23CC(C2)C3)c1` [Compound 336a], with 8.5 nM.
`CS(=O)(=O)Nc1ccc2c(c1)[C@]1(CC[C@H](C(F)F)CC1)CN2C(=O)c1cccc(S(=O)(=O)NC23CC(C2)C3)c1` [Compound 336b] gave an IC50 of 17 nM. Against the preceding compound, the IC50 is about 2-fold higher.
In the case of `CS(=O)(=O)Nc1ccc2c(c1)C1(CCC3(CC3)CC1)CN2C(=O)c1ccc(F)c(S(=O)(=O)NC23CC(C2)C3)c1` [Compound 337, N-(bicyclo[1.1.1]pentan-1-yl)-2-fluoro-5-(5″-(methylsulfonamido)dispiro[cyclopropane-1,1′-cyclohexane-4′,3″-indoline]-1″- carbonyl)benzenesulfonamide] it was 8.8 nM; in that of `CC(C)(C)NS(=O)(=O)c1cccc(C(=O)N2CC3(CCC4(CC4)CC3)c3cc(C(O)C(F)(F)F)ccc32)c1` (stereo not drawn) [Compound 338, N-(tert-butyl)-3-(5″-(2,2,2-trifluoro-1-hydroxyethyl)dispiro[cyclopropane-1,1′-cyclohexane-4′,3″-indoline]-1″-carbonyl)benzenesulfonamide], 49 nM; in that of `CS(=O)(=O)Nc1ccc2c(c1)C1(CCC3(CC3)CC1)CN2C(=O)c1cccc(C(C#N)C2CCCC2)c1` (stereo not drawn) [Compound 339, N-(1″-(3-(cyano(cyclopentyl)methyl)benzoyl)dispiro[cyclopropane-1,1′-cyclohexane-4′,3″-indolin]-5″- yl)methanesulfonamide], 24 nM.
Then `CCS(=O)(=O)Nc1ccc2c(c1)C1(CCC3(CC3)CC1)CN2C(=O)c1ccc(F)c(S(=O)(=O)NC(C)(C)C)c1` [Compound 340, N-(tert-butyl)-5-(5″- (ethylsulfonamido)dispiro[cyclopropane-1,1′-cyclohexane-4′,3″-indoline]-1″- carbonyl)-2-fluorobenzenesulfonamide], with 18 nM; and `CC(c1cccc(C(=O)N2CC3(CCC4(CC4)CC3)c3cc(NS(C)(=O)=O)ccc32)c1)N1CCC(F)(F)CC1` (stereo not drawn) [Compound 341, N-(1″-(3-(1-(4,4-difluoropiperidin-1-yl)ethyl)benzoyl)dispiro[cyclopropane-1,1′-cyclohexane-4′,3″-indolin]-5″-yl)methanesulfonamide], with 25 nM; and `CS(=O)(=O)Nc1ccc2c(c1)C1(CCC3(CC3)CC1)CN2C(=O)c1cccc(CN2CCC(F)(F)CC2)n1` [Compound 342, N-(1″-(6-((4,4-difluoropiperidin-1-yl)methyl)picolinoyl)dispiro[cyclopropane-1,1′-cyclohexane-4′,3″-indolin]-5″- yl)methanesulfonamide], with 20 nM.
With `Cc1cc(C(=O)N2CC3(CCC4(CC4)CC3)c3cc(NS(C)(=O)=O)ccc32)nc(CN2CCC(F)(F)CC2)n1` [Compound 343, N-(1″-(2-((4,4-difluoropiperidin-1-yl)methyl)-6-methylpyrimidine-4-carbonyl)dispiro[cyclopropane-1,1′-cyclohexane-4′,3″-indolin]-5″- yl)methanesulfonamide], the concentration for half-maximal inhibition (IC50) turned out to be 810 nM.
As for `CS(=O)(=O)Nc1ccc2c(c1)C1(CCC3(CC3)CC1)CN2C(=O)c1cccc(CN2CC(F)(F)C2)c1` [Compound 345, N-(1″-(3-((3,3-difluoroazetidin-1-yl)methyl)benzoyl)dispiro[cyclopropane-1,1′-cyclohexane-4′,3″-indolin]-5″-yl)methanesulfonamide], half-maximal inhibition (IC50) was put at 58 nM.
In the case of `CS(=O)(=O)Nc1ccc2c(c1)C1(CCC3(CC3)CC1)CN2C(=O)c1cccc(CN2CCCO2)c1` [Compound 346, N-(1″-(3-(isoxazolidin-2-ylmethyl)benzoyl)dispiro[cyclopropane-1,1′-cyclohexane-4′,3″-indolin]-5″- yl)methanesulfonamide] it was 310 nM; in that of `CS(=O)(=O)Nc1ccc2c(c1)C1(CCC3(CC3)CC1)CN2C(=O)c1cccc(NC2CCCC2)c1` [Compound 347, N-(1″-(3-(cyclopentylamino)benzoyl)dispiro [cyclopropane-1,1′-cyclohexane-4′,3″- indolin]-5″-yl)methanesulfonamide], 280 nM; in that of `CN(c1cccc(C(=O)N2CC3(CCC4(CC4)CC3)c3cc(NS(C)(=O)=O)ccc32)c1)C1CCCC1` [Compound 348, N-(1″-(3-(cyclopentyl(methyl)amino)benzoyl)dispiro[cyclopropane-1,1′-cyclohexane-4′,3″-indolin]-5″- yl)methanesulfonamide], 190 nM.
In turn, `CS(=O)(=O)Nc1ccc2c(c1)C1(CCC3(CC3)CC1)CN2C(=O)c1cccc(CN2CCC(F)(F)C2)c1` [Compound 349, N-(1″-(3-((3,3-difluoropyrrolidin-1-yl)methyl)benzoyl)dispiro [cyclopropane-1,1′-cyclohexane-4′,3″-indolin]-5″- yl)methanesulfonamide] gave a half-maximal inhibitory concentration (IC50) of 45 nM.
In the case of `CS(=O)(=O)Nc1ccc2c(c1)C1(CCC3(CC3)CC1)CN2C(=O)c1cccc(C(O)C2CC(F)(F)C2)c1` (stereo not drawn) [Compound 351, N-(1″-(3-((3,3-difluorocyclobutyl)(hydroxyj)methyl)benzoyl)dispiro[cyclopropane-1,1′-cyclohexane-4′,3″-indolin]-5″- yl)methanesulfonamide] it was 8.8 nM; in that of `CS(=O)(=O)Nc1ccc2c(c1)C1(CCC3(CC3)CC1)CN2C(=O)c1cccc([C@@H](O)C2CC(F)(F)C2)c1` [Compound 351b], 12 nM; in that of `CC1(C(O)c2cccc(C(=O)N3CC4(CCC5(CC5)CC4)c4cc(NS(C)(=O)=O)ccc43)c2)CCC1` (stereo not drawn) [Compound 354, N-(1″-(3-(hydroxy(1-methylcyclobutyl)methyl)benzoyl)dispiro[cyclopropane-1,1′-cyclohexane-4′,3″-indolin]-5″- yl)methanesulfonamide], 14 nM.
In the case of `CN(C1CC(F)(F)C1)S(=O)(=O)c1cccc(C(=O)N2CC3(CCC4(CC4)CC3)c3cc(NS(C)(=O)=O)ccc32)c1` [Compound 356, N-(3,3-difluorocyclobutyl)-N-methyl-3-(5″- (methylsulfonamido)dispiro[cyclopropane-1,1′-cyclohexane-4′,3″-indoline]-1″-carbonyl)benzenesulfonamide] it was 51 nM.
Then `CC(C)(C)CC(O)c1cccc(C(=O)N2CC3(CCC4(CC4)CC3)c3cc(NS(C)(=O)=O)ccc32)c1` (stereo not drawn) [Compound 357, N-(1″-(3-(1-hydroxy-3,3-dimethylbutyl)benzoyl)dispiro[cyclopropane-1,1′-cyclohexane-4′,3″-indolin]-5″-yl)methanesulfonamide], with 11 nM; and `CS(=O)(=O)Nc1ccc2c(c1)C1(CCC3(CC3)CC1)CN2C(=O)c1cccc(CN2C[C@@H]3[C@H](C2)C3(F)F)c1` [Compound 358, N-(1″-(3-((6,6-difluoro-3-azabicyclo[3.1.0]hexan-3-yl)methyl)benzoyl)dispiro[cyclopropane-1,1′-cyclohexane-4′,3″-indolin]-5″- yl)methanesulfonamide], with 28 nM; and `CC(C)(C)NS(=O)(=O)c1cccc(C(=O)N2C[C@]3(CC[C@H](C(F)(F)F)CC3)c3cc(NS(C)(=O)=O)ccc32)c1` [Compound 361a], with 15 nM.
`CC(C)(C)NS(=O)(=O)c1cccc(C(=O)N2C[C@]3(CC[C@@H](C(F)(F)F)CC3)c3cc(NS(C)(=O)=O)ccc32)c1` [Compound 361b] returned an IC50 of 100 nM.
Then `CP(=O)(CC1CCC1)c1cccc(C(=O)N2CC3(CCC4(CC4)CC3)c3cc(NS(C)(=O)=O)ccc32)c1` (stereo not drawn) [Compound 362], with 35 nM; and `CS(=O)(=O)Nc1ccc2c(c1)C1(CCC3(CC3)CC1)CN2C(=O)c1cc(C(O)C2CCCC2)cs1` (stereo not drawn) [Compound 364, N-(1″-(4-(cyclopentyl(hydroxy)methyl)thiophene-2-carbonyl)dispiro[cyclopropane-1,1′-cyclohexane-4′,3″-indolin]-5″- yl)methanesulfonamide], with 5.1 nM.
Then `CS(=O)(=O)Nc1ccc2c(c1)C1(CCC3(CC3)CC1)CN2C(=O)c1ccc(C(O)C2CC(F)(F)C2)o1` (stereo not drawn) [Compound 369, N-(1″-(5-((3,3-difluorocyclobutyl)(hydroxy)methyl)furan-2-carbonyl)dispiro[cyclopropane-1,1′-cyclohexane-4′,3″-indolin]-5″- yl)methanesulfonamide], with 7.1 nM; and “N-(1-hydroxy-2-methylpropan-2-yl)-3- (5″- (methylsulfonamido)dispiro[cyclopropane- 1,1′-cyclohexane-4′,3″-indoline]- 1″-carbonyl)benzenesulfonamide [Compound 194]”, with 50 nM.
